Laboratory results taken from paper PMC6494879, “Drug resistance emergence in macaques administered cabotegravir long-acting for pre-exposure prophylaxis during acute SHIV infection” (Nature Communications, 2019).
Read-outs that look alike come from different tables or passages of the source.

Tests used:
[1] = test system: SIV integrase E92Q (SIV IN RTV pseudovirus); assay type: cell-based; conditions: E92Q SIV integrase mutant
[2] = test system: SIV integrase E92Q/G140R (SIV IN RTV pseudovirus); assay type: cell-based; conditions: E92Q/G140R SIV integrase mutant
[3] = test system: SIV integrase E92G (SIV IN RTV pseudovirus)
[4] = for Median CAB: plasma, median of treated macaques
Description: (§1) CAB LA (200 mg/mL injectable stock aqueous suspension) was given at a dose of 50 mg kg^−1 under anesthesia by intramuscular injection into the quadriceps. Volumes greater than 1.0 mL were divided into two injection sites.

[5] = time course, day given in the Days column, CAB LA 50 mg/kg i.m. days 11, 39, 67, LLOQ 10 ng ml^-1
Description: as §1

HIV-1 = conditions: read-out: 50% inhibitory concentration (IC50); cited from earlier work

## C[C@H]1CO[C@@H]2Cn3cc(C(=O)NCc4ccc(F)cc4F)c(=O)c(O)c3C(=O)N12 [CAB, cabotegravir]
[1]
  fold-change relative to wild type integrase: 2.5 fold
[2]
  fold-change relative to wild type integrase: > 840 fold
[3]
  EC50: 4.2 nM
  fold-change relative to wild type integrase: 3.5 fold
[4]; four of the six animals
  time after which plasma CAB was below the limit of detection of the assay: 115 to 176 days
[4]; macaque 01D520, day 18
  Plasma CAB concentration: 11.2 µg/mL
[4]; macaque 01D520, day 25
  Plasma CAB concentration: 7.1 µg/mL
[4]; macaque 01D520, day 32
  Plasma CAB concentration: 2.24 µg/mL
[4]; macaque 01D520, day 39
  Plasma CAB concentration: 0.239 µg/mL
[4]; macaque 01D520, day 46
  Plasma CAB concentration: 6.87 µg/mL
[4]; macaque 01D520, day 53
  Plasma CAB concentration: 5.88 µg/mL
[4]; macaque 01D520, day 57
  Plasma CAB concentration: 4.57 µg/mL
[4]; macaque 01D520, day 67
  Plasma CAB concentration: 0.943 µg/mL
[4]; macaque 01D520, day 74
  Plasma CAB concentration: 6.2 µg/mL
[4]; macaque 01D520, day 81
  Plasma CAB concentration: 4.17 µg/mL
[4]; macaque 01D520, day 88
  Plasma CAB concentration: 2.42 µg/mL
[4]; macaque 01D520, day 95
  Plasma CAB concentration: 0.992 µg/mL
[4]; macaque 01D520, day 102
  Plasma CAB concentration: 0.432 µg/mL
[4]; macaque 01D520, day 106
  Plasma CAB concentration: 0.273 µg/mL
[4]; macaque 10D181, day 18
  Plasma CAB concentration: 3.2 µg/mL
[4]; macaque 10D181, day 25
  Plasma CAB concentration: 3.88 µg/mL
[4]; macaque 10D181, day 32
  Plasma CAB concentration: 2.79 µg/mL
[4]; macaque 10D181, day 39
  Plasma CAB concentration: 1.33 µg/mL
[4]; macaque 10D181, day 46
  Plasma CAB concentration: 3.45 µg/mL
[4]; macaque 10D181, day 53
  Plasma CAB concentration: 5.06 µg/mL
[4]; macaque 10D181, day 57
  Plasma CAB concentration: 3.47 µg/mL
[4]; macaque 10D181, day 67
  Plasma CAB concentration: 1.51 µg/mL
[4]; macaque 10D181, day 74
  Plasma CAB concentration: 2.76 µg/mL
[4]; macaque 10D181, day 81
  Plasma CAB concentration: 3.57 µg/mL
[4]; macaque 10D181, day 88
  Plasma CAB concentration: 2.78 µg/mL
[4]; macaque 10D181, day 95
  Plasma CAB concentration: 1.5 µg/mL
[4]; macaque 10D181, day 102
  Plasma CAB concentration: 0.454 µg/mL
[4]; macaque 10D181, day 106
  Plasma CAB concentration: 0.227 µg/mL
[4]; macaque 33996, day 18
  Plasma CAB concentration: 5.68 µg/mL
[4]; macaque 33996, day 25
  Plasma CAB concentration: 6.38 µg/mL
[4]; macaque 33996, day 32
  Plasma CAB concentration: 4.05 µg/mL
[4]; macaque 33996, day 39
  Plasma CAB concentration: 3.3 µg/mL
[4]; macaque 33996, day 46
  Plasma CAB concentration: 5.86 µg/mL
[4]; macaque 33996, day 53
  Plasma CAB concentration: 9.39 µg/mL
[4]; macaque 33996, day 57
  Plasma CAB concentration: 9.76 µg/mL
[4]; macaque 33996, day 67
  Plasma CAB concentration: 1.4 µg/mL
[4]; macaque 33996, day 74
  Plasma CAB concentration: 4.57 µg/mL
[4]; macaque 33996, day 81
  Plasma CAB concentration: 6.04 µg/mL
[4]; macaque 33996, day 88
  Plasma CAB concentration: 3.04 µg/mL
[4]; macaque 33996, day 95
  Plasma CAB concentration: 1.43 µg/mL
[4]; macaque 33996, day 102
  Plasma CAB concentration: 0.816 µg/mL
[4]; macaque 33996, day 106
  Plasma CAB concentration: 0.611 µg/mL
[4]; macaque 35451, day 18
  Plasma CAB concentration: 6.34 µg/mL
[4]; macaque 35451, day 25
  Plasma CAB concentration: 4.47 µg/mL
[4]; macaque 35451, day 32
  Plasma CAB concentration: 1.84 µg/mL
[4]; macaque 35451, day 39
  Plasma CAB concentration: 0.819 µg/mL
[4]; macaque 35451, day 46
  Plasma CAB concentration: 2.55 µg/mL
[4]; macaque 35451, day 53
  Plasma CAB concentration: 4.01 µg/mL
[4]; macaque 35451, day 57
  Plasma CAB concentration: 6.17 µg/mL
[4]; macaque 35451, day 67
  Plasma CAB concentration: 3.19 µg/mL
[4]; macaque 35451, day 74
  Plasma CAB concentration: 4.1 µg/mL
[4]; macaque 35451, day 81
  Plasma CAB concentration: 2.89 µg/mL
[4]; macaque 35451, day 88
  Plasma CAB concentration: 3.28 µg/mL
[4]; macaque 35451, day 95
  Plasma CAB concentration: 2.43 µg/mL
[4]; macaque 35451, day 102
  Plasma CAB concentration: 2.21 µg/mL
[4]; macaque 35451, day 106
  Plasma CAB concentration: 1.25 µg/mL
[4]; macaque CH54, day 18
  Plasma CAB concentration: 5.12 µg/mL
[4]; macaque CH54, day 25
  Plasma CAB concentration: 5.14 µg/mL
[4]; macaque CH54, day 32
  Plasma CAB concentration: 3.53 µg/mL
[4]; macaque CH54, day 39
  Plasma CAB concentration: 1.14 µg/mL
[4]; macaque CH54, day 46
  Plasma CAB concentration: 2.99 µg/mL
[4]; macaque CH54, day 53
  Plasma CAB concentration: 2.32 µg/mL
[4]; macaque CH54, day 57
  Plasma CAB concentration: 3.27 µg/mL
[4]; macaque CH54, day 67
  Plasma CAB concentration: 4.33 µg/mL
[4]; macaque CH54, day 74
  Plasma CAB concentration: 5.39 µg/mL
[4]; macaque CH54, day 81
  Plasma CAB concentration: 5.03 µg/mL
[4]; macaque CH54, day 88
  Plasma CAB concentration: 3.45 µg/mL
[4]; macaque CH54, day 95
  Plasma CAB concentration: 1.97 µg/mL
[4]; macaque CH54, day 102
  Plasma CAB concentration: 1.41 µg/mL
[4]; macaque CH54, day 106
  Plasma CAB concentration: 0.707 µg/mL
[4]; macaque CJ92, day 18
  Plasma CAB concentration: 6.99 µg/mL
[4]; macaque CJ92, day 25
  Plasma CAB concentration: 3.55 µg/mL
[4]; macaque CJ92, day 32
  Plasma CAB concentration: 3.13 µg/mL
[4]; macaque CJ92, day 39
  Plasma CAB concentration: 2.92 µg/mL
[4]; macaque CJ92, day 46
  Plasma CAB concentration: 3.62 µg/mL
[4]; macaque CJ92, day 53
  Plasma CAB concentration: 2.88 µg/mL
[4]; macaque CJ92, day 57
  Plasma CAB concentration: 3.47 µg/mL
[4]; macaque CJ92, day 67
  Plasma CAB concentration: 3.7 µg/mL
[4]; macaque CJ92, day 74
  Plasma CAB concentration: 5.46 µg/mL
[4]; macaque CJ92, day 81
  Plasma CAB concentration: 6.56 µg/mL
[4]; macaque CJ92, day 88
  Plasma CAB concentration: 4.022 µg/mL
[4]; macaque CJ92, day 95
  Plasma CAB concentration: 1.93 µg/mL
[4]; macaque CJ92, day 102
  Plasma CAB concentration: 1.54 µg/mL
[4]; macaque CJ92, day 106
  Plasma CAB concentration: 0.994 µg/mL
[4]; day 18
  Median CAB: 6.01 µg/mL
[4]; day 25
  Median CAB: 4.805 µg/mL
[4]; day 32
  Median CAB: 2.96 µg/mL
[4]; day 39
  Median CAB: 1.235 µg/mL
[4]; day 46
  Median CAB: 3.535 µg/mL
[4]; day 53
  Median CAB: 4.535 µg/mL
[4]; day 57
  Median CAB: 4.02 µg/mL
[4]; day 67
  Median CAB: 2.35 µg/mL
[4]; day 74
  Median CAB: 4.98 µg/mL
[4]; day 81
  Median CAB: 4.6 µg/mL
[4]; day 88
  Median CAB: 3.16 µg/mL
[4]; day 95
  Median CAB: 1.715 µg/mL
[4]; day 102
  Median CAB: 1.113 µg/mL
[4]; day 106
  Median CAB: 0.659 µg/mL
[4]; remaining two animals
  CAB in plasma at the last measurement on day 204: detectable
[5]; macaque 10D181
  Vaginal fluid CAB concentration in treated macaques: 0.009 µg/mL
[5]; macaque 33996
  Vaginal fluid CAB concentration in treated macaques: 0.009 µg/mL
HIV-1
  IC50: ~0.22 nM
